Entries after “also recorded” stand apart in the source; their conditions may differ.
How the values were obtained:
[1] = system: RANKL-induced RAW264.7 cells; experiment: In vitro anti-bone resorption assay: CTX-I released into culture medium (ELISA), cells on bovine femur slices; type: cell-based
Source text: (§1) Type I collagen, the predominant structural protein in bone, constitutes approximately 90% of the bone matrix protein [22]. During bone renewal, type I collagen is degraded, releasing short peptide fragments such as the C-terminal peptide of type I collagen (CTX-I) into the bloodstream. The concentration of CTX-I in the patient’s blood serves as a crucial biomarker for evaluating the degree of osteoporosis. In vitro, bone resorption can be assessed by measuring the concentration of CTX-I using a model in which osteoclasts are cultured on bone slices. In this experiment, the in vitro anti-bone resorption activities of the test compounds were evaluated in RANKL-induced RAW264.7 cells. This evaluation was based on the concentration of CTX-I released into the cell culture medium due to bone degradation, as well as the area of bone resorption pits formed on bone slices.
(§2) RAW264.7 cells, obtained from the cell bank of the Chinese Academy of Medical Sciences, were seeded into 96-well plates at a density of 1 × 10^5 cells per well with bovine femur slices. To induce cell differentiation, 50 ng mL^−1 of RANKL was added to the RAW264.7 cells. The cells were cultured for 5 days at 37 °C under 5% CO2 with the test compounds at a concentration of 1 µM. The culture supernatant was collected to measure the CTX-I concentration using ELISA. The bone slices were fixed with 2.5% glutaraldehyde for 7 min, then washed 3 times with 0.25 mol/L ammonium hydroxide, dehydrated using a series of ethanol solutions (40%, 75%, 80%, 95%, and anhydrous ethanol), and dried naturally. After staining with 1% toluidine blue solution at room temperature for 3–4 min, the bone slices were rinsed with distilled water and analyzed using an optical microscope. Bone resorption areas were calculated using image analysis software (iBright CL1500, Redmond, WA, USA).

[2] = system: Cat K levels in RAW264.7 cells; experiment: Western blotting assay of Cat K expression; type: cell-based; settings: H-9 at 0, 1 and 5 µM for five days, RANKL-treated RAW264.7 cells
Procedure: To further verify the anti-bone resorption mechanism of the target compounds, a western blotting assay was carried out to assess the effect of compound H-9 on the expression of Cat K. […] RAW264.7 cells were treated with compound H-9 at concentrations of 0, 1, and 5 µM for five days, followed by cell lysis. Proteins were extracted and analyzed for Cat K levels. […] These western blotting results, combined with enzyme inhibitory activities and molecular docking analyses, confirm that the anti-bone resorption activity of compound H-9 is mediated through the inhibition of Cat K activity.
RAW264.7 cells were seeded into 12-well plates at a density of 1 × 10^5 cells per well, and 50 ng mL^−1 of RANKL was added to induce cell differentiation. The cells were cultured at 37 °C under 5% CO2 and treated with compound H-9 (0, 1, and 5 µM) for 5 days. The cells were then harvested, lysed, and centrifuged at 12,000× g for 10 min. The supernatants were collected and mixed with loading buffer, then heated to 100 °C. Total protein concentrations were determined using a Bio-Rad protein assay ([…], Hercules, CA, USA). The samples were subjected to SDS-PAGE and transferred to a PVDF membrane. The membrane was blocked with 5% non-fat milk, and then, incubated overnight at 4 °C with primary antibody against Cat K and GAPDH. […]

[3] = system: RANKL-induced RAW264.7 cells; experiment: In vitro anti-bone resorption assay: area of bone resorption pits on bone slices (toluidine blue); type: cell-based; settings: compound 1 µM, 5 days, compared with MIV-711 / model group
Source text: as §1, §2

[4] = system: OVX-induced-osteoporosis mice; experiment: OVX-induced osteoporosis mouse model, BMD of the thighbone; type: in vivo; settings: 16 weeks; for BMD compared to the untreated model group: H-9 90, 30 and 10 mg/kg, raloxifene 5 mg/kg, intragastric
Procedure: To evaluate the anti-osteoporosis therapeutic potential of compound H-9, an ovariectomized (OVX)-induced osteoporosis mouse model was established and employed. The study included six experimental groups: a blank control group, an untreated model group, three H-9 treatment groups (doses of 90 mg/kg, 30 mg/kg, and 10 mg/kg), and a positive control group treated with raloxifene (5 mg/kg), with 10 mice in each group.
The mice were randomly divided into 2 groups: a blank control group (n = 10) and a model group (n = 50). After a 7-day acclimation period, the model group mice received a bilateral ovariectomy. Subsequently, the model group was further divided into 5 subgroups (n = 10): an untreated model group, three test groups, and a raloxifene group. Ten days after surgery, the three test groups were administered compound H-9 via intragastric administration at doses of 90 mg/kg, 30 mg/kg, and 10 mg/kg, respectively. Raloxifene was given to the positive control group at a dose of 5 mg/kg. All drugs were administered for 16 weeks, with a 1-day break following every 6 consecutive days of administration. The blank control and untreated model groups received an equivalent volume of saline. At the end of the administration period, the mice were anesthetized with sodium pentobarbital, and the BMD of the thighbone was measured using an OSTEOCORE 3 Bone Density Meter (Thule, Marseille, France).

[5] = Acute toxicity testing, oral; type: in vivo, mice; settings: mouse, in vivo, 300 mg/kg/day for 7 days, mice
Procedure: (§3) Initially, acute toxicity testing was carried out to establish appropriate dosages. Compound H-9 was administered orally at a dose of 300 mg/kg/day for 7 days.

[6] = system: mice; experiment: Acute toxicity testing, oral; type: in vivo; settings: 300 mg/kg/day for 7 days
Procedure: as §3

[7] = target: T1, Recombinant human Cat K (Homo sapiens, UniProt P43235); experiment: In vitro enzymatic assay of Cat K inhibition (Z-Phe-Arg-AMC fluorescence); type: biochemical; settings: pH 6.0, substrate Z-Phe-Arg-AMC, read-out: Cat K IC50 (µM) ± SD
T1 sequence (P43235 115-329): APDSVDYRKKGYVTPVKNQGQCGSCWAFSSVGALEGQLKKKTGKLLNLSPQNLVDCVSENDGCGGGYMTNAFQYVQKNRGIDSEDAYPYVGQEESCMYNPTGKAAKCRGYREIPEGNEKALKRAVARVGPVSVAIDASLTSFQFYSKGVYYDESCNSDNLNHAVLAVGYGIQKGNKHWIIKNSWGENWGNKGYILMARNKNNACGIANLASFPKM
Procedure: Compounds were tested at eight concentrations (100–0.001 µM). Recombinant human Cat K (5.5 ng/mL) in reaction buffer (50 µL) containing sodium acetate (50 mM), EDTA (2.5 mM), and DTT (1 mM) was added to a 96-well plate containing the test compounds at pH 6.0. The plate was incubated at 37 °C for 15 min, and the fluorescence (F1) was measured at 355 nm excitation and 460 nm emission using a microplate reader (Wallac 1420 Victor2, Norwalk, CA, USA). Subsequently, Z-Phe-Arg-AMC (20 µL, 10 µM) was added, and the plate was incubated at 37 °C for 1 h. Fluorescence (F2) was measured again at 355 nm excitation and 460 nm emission. The inhibition rate was calculated using the formula: inhibition (%) = [control (F2 − F1) − sample (F2–F1)]/[control (F2 − F1) − blank (F2 − F1)] × 100%. IC50 values were calculated using the SPSS 17.0 software.

| SMILES | CTX-I concentration in the cell culture medium ([1]; compound 1 µM, 5 days, ELISA) [nM] | CTX-I concentration compared to the model group (in words) ([1]; compound 1 µM, 5 days, vs untreated model group) | Anti-bone resorption effects in vitro compared to MIV-711 (summary statement) ([1]; in vitro, RAW264.7 cells) | Effect on Cat K levels (western blot) [2] | Anti-bone resorption activity by area of bone resorption pits (in words) [3] | BMD compared to the untreated model group [4] | Efficacy on BMD compared to the positive control ([4]; H-9 at 90 mg/kg vs raloxifene 5 mg/kg) | LD50 at 7 days [5] [mg/kg] | Mouse deaths [6] | IC50 [7] [µM] |
| --- | --- | --- | --- | --- | --- | --- | --- | --- | --- | --- |
| COc1ccc(S(=O)(=O)N2CCC[C@@H](C(=O)NCc3ccc(Cl)cc3)C2)cc1 [Compound H-9, (R)-N-(4-chlorobenzyl)-1-((4-methoxyphenyl)sulfonyl)piperidine-3-carboxamide] | 20.46 ± 3.67 | reduced CTX-I concentration | comparable to those of MIV-711; also recorded: comparable to that of MIV-711 | dose-dependent decrease in Cat K levels; also recorded: effectively downregulated cathepsin K expression; also recorded: decreased Cat K levels | comparable to that of MIV-711 | increased the bone mineral density; also recorded: significant increases in BMD | comparable to that of the positive control | > 300 | No mouse deaths | 0.08 ± 0.03 |
| O=C(c1ccc(OCCN2CCCCC2)cc1)c1c(-c2ccc(O)cc2)sc2cc(O)ccc12 [raloxifene, reference compound] | – | – | – | – | – | significant increases in BMD | – | – | – | – |
